These results are taken from ChEMBL document CHEMBL6134892, “Discovery and Evaluation of DA-302168S as an Efficacious Oral Small-Molecule Glucagon-Like Peptide-1 Receptor Agonist” (J Med Chem, 2025).

Molecules are shown by their SMILES. A value given as a limit tells only on which side of the number the result lay.

Series [1] in a line: Metabolic stability in human liver microsomes assessed as intrinsic clearance at 1 uM measured after 5 to 45 mins in presence of NADPH by LC-MS/MS analysis. It is filed as ADME, Microsome. To be noted: time 5-45 min, read-out: CLH. On the technique in general: Liver microsomes are a subcellular fraction often used to study metabolism.
Series [2] has as its target Voltage-gated inwardly rectifying potassium channel KCNH2 (Homo sapiens, UniProt Q12809). As to the kind of experiment: Inhibition of human ERG by whole-cell patch clamp technique. Format: toxicity. For orientation: Patch clamp records ionic current or voltage across a cell membrane.
Series [3] is described as follows: Metabolic stability in human liver microsomes assessed as half life at 1 uM measured after 5 to 45 mins in presence of NADPH by LC-MS/MS analysis. Format: ADME, Microsome. To be noted: time 5-45 min.
Series [4] is described as follows: Metabolic stability in human liver microsomes assessed as hepatic clearance at 1 uM measured after 5 to 45 mins in presence of NADPH by LC-MS/MS analysis. Format: ADME, Microsome. As to conditions: time 5-45 min.
Series [5] deals with hERG (KCNH2) (Homo sapiens, UniProt Q12809). As to the kind of experiment: Inhibition of human ERG at 30 uM by whole-cell patch clamp technique relative to control. Format: toxicity.
The target in series [6] is Glucagon-like peptide 1 receptor (Homo sapiens, UniProt P43220). As to the kind of experiment: Agonist activity at human GLP-1R expressed in HEK293 cells coexpressing CRE LUC incubated for 5 hrs by luciferase based microplate reader analysis. It is filed as functional, cell-based.
The target in series [7] is T1, Cytochrome P450 2B6 (Homo sapiens, UniProt P20813).
T1 sequence (P20813 whole entry): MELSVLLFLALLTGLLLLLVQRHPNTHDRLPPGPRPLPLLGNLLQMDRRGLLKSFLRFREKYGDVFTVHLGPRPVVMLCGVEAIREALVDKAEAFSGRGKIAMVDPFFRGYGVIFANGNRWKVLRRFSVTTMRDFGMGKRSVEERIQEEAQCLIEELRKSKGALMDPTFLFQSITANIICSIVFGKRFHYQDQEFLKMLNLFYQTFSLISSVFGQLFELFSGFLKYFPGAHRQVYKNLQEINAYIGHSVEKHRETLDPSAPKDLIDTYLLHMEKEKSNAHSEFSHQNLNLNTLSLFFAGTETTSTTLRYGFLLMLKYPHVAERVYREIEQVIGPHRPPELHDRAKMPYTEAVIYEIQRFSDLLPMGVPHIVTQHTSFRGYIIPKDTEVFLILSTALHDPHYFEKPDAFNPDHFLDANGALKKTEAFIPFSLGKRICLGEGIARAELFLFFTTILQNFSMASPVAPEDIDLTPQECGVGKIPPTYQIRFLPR
As to the kind of experiment: Inhibition of CYP2B6 in human liver microsomes incubated for 10 mins in presence of NADPH by LC-MS/MS analysis. Format: ADME, Microsome.

Series [8] is described as follows: Tmax in Sprague-Dawley rat at 10 mg/kg, po measured up to 24 hrs by LC-MS/MS analysis. Format: ADME, organism-based. As to conditions: in vivo.
The target in series [9] is Cytochrome P450 2D6 (Homo sapiens, UniProt P10635). As to the kind of experiment: Inhibition of CYP2D6 in human liver microsomes incubated for 20 mins in presence of NADPH by LC-MS/MS analysis. Format: ADME, Microsome.
In series [10] the target is Cytochrome P450 2C19 (Homo sapiens, UniProt P33261). As to the kind of experiment: Inhibition of CYP2C19 in human liver microsomes incubated for 45 mins in presence of NADPH by LC-MS/MS analysis. It is filed as ADME, Microsome.
The target in series [11] is Cytochrome P450 2C9 (Homo sapiens, UniProt P11712). As to the kind of experiment: Inhibition of CYP2C9 in human liver microsomes incubated for 10 mins in presence of NADPH by LC-MS/MS analysis. It is filed as ADME, Microsome.
The target in series [12] is T2, Cytochrome P450 1A2 (Homo sapiens, UniProt P05177).
T2 sequence (P05177 whole entry): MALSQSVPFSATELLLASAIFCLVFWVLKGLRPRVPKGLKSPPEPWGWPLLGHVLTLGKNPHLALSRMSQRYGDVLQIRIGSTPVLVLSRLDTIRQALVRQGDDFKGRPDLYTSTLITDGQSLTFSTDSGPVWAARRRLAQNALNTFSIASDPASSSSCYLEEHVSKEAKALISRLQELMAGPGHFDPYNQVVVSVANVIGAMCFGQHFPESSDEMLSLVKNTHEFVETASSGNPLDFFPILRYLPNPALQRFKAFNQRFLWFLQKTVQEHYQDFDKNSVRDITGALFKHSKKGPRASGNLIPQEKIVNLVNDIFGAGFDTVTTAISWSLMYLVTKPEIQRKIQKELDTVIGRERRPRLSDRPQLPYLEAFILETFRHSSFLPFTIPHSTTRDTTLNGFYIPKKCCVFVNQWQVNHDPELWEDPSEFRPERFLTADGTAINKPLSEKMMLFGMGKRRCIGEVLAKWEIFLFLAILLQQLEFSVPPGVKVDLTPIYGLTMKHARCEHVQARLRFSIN
As to the kind of experiment: Inhibition of CYP1A2 in human liver microsomes incubated for 10 mins in presence of NADPH by LC-MS/MS analysis. Format: ADME, Microsome.

The nature of series [13]: Cmax in Sprague-Dawley rat at 10 mg/kg, po measured up to 24 hrs by LC-MS/MS analysis. It is filed as ADME, organism-based. As to conditions: in vivo.
Series [14] addresses Cytochrome P450 3A4 (Homo sapiens, UniProt P08684). As to the kind of experiment: Inhibition of CYP3A4 in human liver microsomes using testosterone as substrate incubated for 5 mins in presence of NADPH by LC-MS/MS analysis. Format: ADME, Microsome.
Series [15] can be described thus: AUC last in Sprague-Dawley rat at 10 mg/kg, po measured up to 24 hrs by LC-MS/MS analysis. It is filed as ADME, organism-based. To be noted: in vivo.
The target of series [16] is T3, Cytochrome P450 2C8 (Homo sapiens, UniProt P10632).
T3 sequence (P10632 whole entry): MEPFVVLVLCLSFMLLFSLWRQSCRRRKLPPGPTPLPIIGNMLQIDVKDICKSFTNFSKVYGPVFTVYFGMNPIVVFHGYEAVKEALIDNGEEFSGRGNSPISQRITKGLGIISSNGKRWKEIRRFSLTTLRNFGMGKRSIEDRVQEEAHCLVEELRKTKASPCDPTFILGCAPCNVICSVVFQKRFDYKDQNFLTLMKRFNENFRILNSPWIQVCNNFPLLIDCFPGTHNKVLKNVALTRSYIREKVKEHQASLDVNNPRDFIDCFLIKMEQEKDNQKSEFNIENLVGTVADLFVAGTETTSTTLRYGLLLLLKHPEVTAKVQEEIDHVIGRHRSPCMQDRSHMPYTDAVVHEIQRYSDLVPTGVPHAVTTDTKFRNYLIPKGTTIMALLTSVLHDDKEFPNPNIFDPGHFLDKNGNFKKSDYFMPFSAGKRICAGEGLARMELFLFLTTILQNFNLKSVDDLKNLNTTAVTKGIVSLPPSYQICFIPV
As to the kind of experiment: Inhibition of CYP2C8 in human liver microsomes incubated for 20 mins in presence of NADPH by LC-MS/MS analysis. Format: ADME, Microsome.

Sequence of Glucagon-like peptide 1 receptor (P43220 whole entry): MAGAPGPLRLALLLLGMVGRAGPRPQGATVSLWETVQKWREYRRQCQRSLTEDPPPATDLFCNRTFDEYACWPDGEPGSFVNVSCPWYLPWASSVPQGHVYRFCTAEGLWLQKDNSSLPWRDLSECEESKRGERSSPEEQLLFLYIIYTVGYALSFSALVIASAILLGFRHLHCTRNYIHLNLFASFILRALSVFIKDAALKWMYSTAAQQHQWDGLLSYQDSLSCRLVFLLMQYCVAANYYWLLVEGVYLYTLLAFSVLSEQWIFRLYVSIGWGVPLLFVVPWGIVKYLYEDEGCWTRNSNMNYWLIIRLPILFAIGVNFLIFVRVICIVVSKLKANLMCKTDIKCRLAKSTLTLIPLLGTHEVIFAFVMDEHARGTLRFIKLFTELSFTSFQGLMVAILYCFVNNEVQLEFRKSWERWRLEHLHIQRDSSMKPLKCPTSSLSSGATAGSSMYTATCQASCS
Sequence of Voltage-gated inwardly rectifying potassium channel KCNH2 (Q12809 whole entry): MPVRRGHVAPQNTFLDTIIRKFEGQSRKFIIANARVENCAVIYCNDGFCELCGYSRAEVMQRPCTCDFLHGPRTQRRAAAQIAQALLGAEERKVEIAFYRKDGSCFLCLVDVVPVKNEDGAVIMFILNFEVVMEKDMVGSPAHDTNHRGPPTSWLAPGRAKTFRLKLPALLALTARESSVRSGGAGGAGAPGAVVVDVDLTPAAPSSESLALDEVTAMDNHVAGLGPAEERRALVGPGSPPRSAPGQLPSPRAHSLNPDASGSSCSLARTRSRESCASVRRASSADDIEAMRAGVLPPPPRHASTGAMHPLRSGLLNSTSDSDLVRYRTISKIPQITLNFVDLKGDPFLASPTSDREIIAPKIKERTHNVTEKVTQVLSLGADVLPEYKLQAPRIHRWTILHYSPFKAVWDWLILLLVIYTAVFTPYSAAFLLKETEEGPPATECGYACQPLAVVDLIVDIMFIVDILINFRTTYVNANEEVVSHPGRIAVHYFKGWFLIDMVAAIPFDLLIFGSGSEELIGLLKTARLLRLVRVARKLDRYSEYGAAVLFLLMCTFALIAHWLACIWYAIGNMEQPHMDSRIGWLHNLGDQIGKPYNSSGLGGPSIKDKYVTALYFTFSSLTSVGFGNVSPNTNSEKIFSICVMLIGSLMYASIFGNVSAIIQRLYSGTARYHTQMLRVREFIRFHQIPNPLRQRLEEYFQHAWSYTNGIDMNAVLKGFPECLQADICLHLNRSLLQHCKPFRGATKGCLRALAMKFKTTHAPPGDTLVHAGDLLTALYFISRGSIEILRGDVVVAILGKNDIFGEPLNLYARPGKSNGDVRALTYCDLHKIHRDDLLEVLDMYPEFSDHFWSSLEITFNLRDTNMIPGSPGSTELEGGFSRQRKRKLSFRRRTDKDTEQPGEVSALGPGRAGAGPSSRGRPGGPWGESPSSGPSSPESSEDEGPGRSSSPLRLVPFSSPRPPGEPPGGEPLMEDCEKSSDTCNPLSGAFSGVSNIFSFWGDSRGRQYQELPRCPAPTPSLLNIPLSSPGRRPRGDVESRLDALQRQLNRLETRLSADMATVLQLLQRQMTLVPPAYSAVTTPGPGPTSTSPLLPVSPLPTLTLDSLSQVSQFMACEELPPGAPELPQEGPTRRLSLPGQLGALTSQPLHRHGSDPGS
Sequence of hERG (KCNH2) (Q12809 whole entry): as above
Sequence of Cytochrome P450 2C9 (P11712 whole entry): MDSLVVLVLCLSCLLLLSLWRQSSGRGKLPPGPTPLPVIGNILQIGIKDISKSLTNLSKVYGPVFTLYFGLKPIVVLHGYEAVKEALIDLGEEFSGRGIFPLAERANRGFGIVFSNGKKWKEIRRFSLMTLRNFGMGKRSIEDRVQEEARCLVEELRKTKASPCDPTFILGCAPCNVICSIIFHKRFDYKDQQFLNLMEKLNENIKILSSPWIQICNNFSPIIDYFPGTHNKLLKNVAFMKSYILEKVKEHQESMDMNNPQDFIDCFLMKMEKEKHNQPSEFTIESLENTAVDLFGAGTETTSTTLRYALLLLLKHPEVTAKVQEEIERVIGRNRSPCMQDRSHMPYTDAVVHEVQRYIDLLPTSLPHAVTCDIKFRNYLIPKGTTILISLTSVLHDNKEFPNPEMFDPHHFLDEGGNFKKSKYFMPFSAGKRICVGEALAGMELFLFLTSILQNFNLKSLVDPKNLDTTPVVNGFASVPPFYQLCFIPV
Sequence of Cytochrome P450 2C19 (P33261 whole entry): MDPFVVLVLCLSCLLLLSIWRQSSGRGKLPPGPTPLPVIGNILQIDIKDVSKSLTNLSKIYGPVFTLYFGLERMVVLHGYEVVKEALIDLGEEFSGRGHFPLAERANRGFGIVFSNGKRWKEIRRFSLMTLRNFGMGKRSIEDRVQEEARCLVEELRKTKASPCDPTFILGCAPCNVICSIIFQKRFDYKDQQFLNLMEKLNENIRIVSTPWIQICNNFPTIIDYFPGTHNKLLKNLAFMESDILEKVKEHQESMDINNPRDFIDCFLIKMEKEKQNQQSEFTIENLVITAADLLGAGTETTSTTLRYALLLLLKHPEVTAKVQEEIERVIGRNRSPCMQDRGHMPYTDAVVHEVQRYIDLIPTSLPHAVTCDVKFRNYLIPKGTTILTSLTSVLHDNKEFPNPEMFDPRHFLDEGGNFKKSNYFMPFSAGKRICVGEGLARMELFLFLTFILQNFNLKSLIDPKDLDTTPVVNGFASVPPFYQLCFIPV
Sequence of Cytochrome P450 3A4 (P08684 whole entry): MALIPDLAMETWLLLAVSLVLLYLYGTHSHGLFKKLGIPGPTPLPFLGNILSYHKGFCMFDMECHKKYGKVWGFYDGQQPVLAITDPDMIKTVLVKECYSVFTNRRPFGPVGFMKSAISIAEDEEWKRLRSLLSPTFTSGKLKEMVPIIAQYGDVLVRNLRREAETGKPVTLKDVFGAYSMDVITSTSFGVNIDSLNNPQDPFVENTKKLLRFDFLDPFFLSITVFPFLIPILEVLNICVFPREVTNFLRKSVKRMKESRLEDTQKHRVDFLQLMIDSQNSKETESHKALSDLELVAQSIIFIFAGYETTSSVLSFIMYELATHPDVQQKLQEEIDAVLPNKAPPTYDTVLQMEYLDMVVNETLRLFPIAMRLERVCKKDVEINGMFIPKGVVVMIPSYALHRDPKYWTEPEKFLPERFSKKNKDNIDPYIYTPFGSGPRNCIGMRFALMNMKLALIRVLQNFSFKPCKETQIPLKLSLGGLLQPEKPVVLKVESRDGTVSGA
Sequence of Cytochrome P450 2D6 (P10635 whole entry): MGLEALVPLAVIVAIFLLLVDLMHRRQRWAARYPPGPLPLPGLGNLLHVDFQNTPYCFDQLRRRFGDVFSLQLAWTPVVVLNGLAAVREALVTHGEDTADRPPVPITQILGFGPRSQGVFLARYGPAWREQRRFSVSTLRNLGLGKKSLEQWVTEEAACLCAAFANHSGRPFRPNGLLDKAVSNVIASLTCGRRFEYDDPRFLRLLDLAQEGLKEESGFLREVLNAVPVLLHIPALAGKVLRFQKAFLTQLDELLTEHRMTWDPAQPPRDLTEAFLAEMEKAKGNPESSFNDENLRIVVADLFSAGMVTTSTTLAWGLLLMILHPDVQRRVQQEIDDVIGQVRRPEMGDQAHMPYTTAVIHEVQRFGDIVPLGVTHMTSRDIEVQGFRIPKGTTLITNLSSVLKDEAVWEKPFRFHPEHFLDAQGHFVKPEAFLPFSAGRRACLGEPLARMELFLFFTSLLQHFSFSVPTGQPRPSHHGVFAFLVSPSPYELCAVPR

Consider `O=C(O)c1ccc2nc(Cc3ccc(-c4cccc(OCc5ccc(Cl)c6cc(Cl)oc56)n4)cc3F)n(C[C@@H]3CCO3)c2c1`, for which the CLint scaled at 1 µM in series [1] was 15 mL/min/kg. For the same molecule, the IC50 (as a rule, the concentration needed to halve the response being measured) in [2] is greater than 30000 nM. The half-life – broadly, how long it takes for the measured level to halve – at 1 µM in [3] stood at 1.93 h. Moreover, in [4], the CLhep predicted at 1 µM was 8.7 mL/min/kg. The inhibition – broadly, the percentage by which the read-out fell short of the control – at 30 µM in series [5] was less than 50%.
As to `Cc1cc2c(Cl)ccc(COc3cccc(-c4ccc(Cc5nc6ccc(C(=O)O)cc6n5C[C@@H]5CCO5)c(F)c4)n3)c2o1`, the half-maximal effective concentration (EC50) (commonly the concentration giving half of the maximal effect) in [6] amounted to 7.55 nM.
Consider `O=C(O)c1ccc2nc(Cc3ccc(-c4cccc(OCc5ccc(Cl)c6ccoc56)n4)cc3F)n(C[C@@H]3CCO3)c2c1`, for which the IC50 in series [2] is greater than 30000 nM. In series [5], this molecule showed an inhibition at 30 µM of less than 50%.
Consider `O=C(O)c1ccc2nc(Cc3ccc(-c4cncc(OCc5ccc(Cl)c6ccoc56)n4)cc3F)n(C[C@@H]3CCO3)c2c1`, for which a half-maximal effect in [6] (EC50) was put at 70.9 nM.
The same measure, in the same setting: the result for `Cn1ccc2ccc(COc3cccc(-c4ccc(Cc5nc6ccc(C(=O)O)cc6n5C[C@@H]5CCO5)c(F)c4)n3)cc21` reads 198 nM; that for `COCCn1c(Cc2ccc(-c3cccc(OCc4ccc(Cl)c5ccoc45)n3)cc2F)nc2ccc(C(=O)O)cc21`, 359 nM.
On the same count and under the same terms, in the case of `Cc1cc(-c2cccc(OCc3ccc(C#N)cc3F)n2)ccc1Cc1nc2ccc(C(=O)O)cc2n1C[C@@H]1CCO1` it was 13.5 nM; in that of `N#Cc1ccc(COc2cccc(N3CCC(Cc4nc5ccc(C(=O)O)cc5n4C[C@@H]4CCO4)CC3)n2)c(F)c1`, 85.5 nM.
In the case of `N#Cc1ccc(COc2cccc(C3CCN(Cc4nc5ccc(C(=O)O)cc5n4C[C@@H]4CCO4)CC3)n2)c(F)c1` [DANUGLIPRON], the IC50 in series [7], in series [9], in [10], in [11], in series [12] and in series [14] was greater than 30000 nM each time. Besides, in series [16], the IC50 came out at 3340 nM. Besides, the CLint scaled at 1 µM in series [1] amounted to 16 mL/min/kg. Also, the Tmax (usually the time at which the peak concentration occurs) in series [8] was determined as 0.63 h. Besides, in series [13], the concentration peaked (Cmax) at 197 ng/mL. Besides, the half-life at 1 µM in series [3] worked out at 1.8 h. For the same molecule, in series [4], the CLhep predicted at 1 µM is 9.04 mL/min/kg. In addition, in series [15], the AUC(0-t) (usually the area under the concentration-time curve up to a stated or last time point) at 24 h was found to be 714 ng·h/mL.
